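Interpolation was linear, between the two tested concentrations surrounding the appropriate level; five concentrations were tested over 48 hours in 96-well plates. GI50 is the concentration that inhibits growth by half.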 Active and inactive are the calls of the source. Cut-off read from the data, not from the text of the source: active = GI50 up to about 1.1 µM and inactive = higher.
What was measured:
Experiment in all cases: NCI anticancer screen, dose series, 48 h
[1] = system: A498
[2] = system: CAKI-1
[3] = system: HCC 2998
[4] = system: HCT-15
[5] = system: HL-60
[6] = system: IGROV-1
[7] = system: NCI-H23
[8] = system: OVCAR-4
[9] = system: OVCAR-8
[10] = system: SF-268
[11] = system: SF-539
[12] = system: SK-OV-3
[13] = system: SNB-19
[14] = system: SR
[15] = system: TK-10
[16] = system: UACC-62
[17] = system: UO-31
[18] = system: HOP-92
[19] = system: NCI-H226
[20] = system: OVCAR-3

Compound	GI50 [1]	GI50 [2]	GI50 [3]	GI50 [4] [µM]	GI50 [5]	GI50 [6]	GI50 [7]	GI50 [8]	GI50 [9]	GI50 [10]	GI50 [11]	GI50 [12]	GI50 [13]	GI50 [14]	GI50 [15]	GI50 [16]	GI50 [17]	GI50 [18]	GI50 [19]	GI50 [20]
CC(C)(C)c1cc(Cc2ccc(S(C)(=O)=O)cc2)c(O)c(C(C)(C)C)c1	16.1 µM (inactive)	16.2 µM (inactive)	16.2 µM (inactive)	16.9	16.5 µM (inactive)	14.9 µM (inactive)	16.8 µM (inactive)	14.4 µM (inactive)	14.7 µM (inactive)	13.2 µM (inactive)	16.7 µM (inactive)	21.7 µM (inactive)	15.5 µM (inactive)	13.2 µM (inactive)	17.9 µM (inactive)	13.1 µM (inactive)	16.1 µM (inactive)	–	–	–
COc1ccc2nc3cc([N+](=O)[O-])ccc3c(Nc3ccc(S(=O)(=O)Nc4ncccn4)cc3)c2c1	–	> 100 µM (inactive)	> 59 µM (inactive)	> 69.8	> 100 µM (inactive)	15 µM (inactive)	–	> 100 µM (inactive)	45.2 µM (inactive)	40 µM (inactive)	> 100 µM (inactive)	> 100 µM (inactive)	–	6.24 µM (inactive)	66.8 µM (inactive)	> 65.9 µM (inactive)	19.4 µM (inactive)	> 44.7 µM (inactive)	69.3 µM (inactive)	> 50.4 µM (inactive)
CN1C(=O)C2(C)SC1(c1ccccc1)C1C(=O)N(c3ccccc3)C(=O)C12 (configuration not stated)	49.9 µM (inactive)	> 100 µM (inactive)	–	66.4	47.1 µM (inactive)	48 µM (inactive)	> 100 µM (inactive)	41.3 µM (inactive)	> 100 µM (inactive)	> 100 µM (inactive)	> 100 µM (inactive)	> 100 µM (inactive)	> 100 µM (inactive)	64.1 µM (inactive)	57.4 µM (inactive)	65.3 µM (inactive)	> 100 µM (inactive)	36.6 µM (inactive)	60.4 µM (inactive)	> 100 µM (inactive)
O=c1c2cc([N+](=O)[O-])ccc2nc2n1CCCCC2	87.9 µM (inactive)	79.6 µM (inactive)	–	> 100	14.2 µM (inactive)	> 100 µM (inactive)	> 100 µM (inactive)	> 100 µM (inactive)	> 100 µM (inactive)	> 100 µM (inactive)	> 100 µM (inactive)	> 100 µM (inactive)	–	> 100 µM (inactive)	> 100 µM (inactive)	> 100 µM (inactive)	> 100 µM (inactive)	> 100 µM (inactive)	> 100 µM (inactive)	> 100 µM (inactive)
CC(C)COC(=O)N1N=NC2C3CC(=O)C(O3)C21 (configuration not stated)	> 100 µM (inactive)	> 100 µM (inactive)	> 100 µM (inactive)	> 100	–	> 100 µM (inactive)	> 100 µM (inactive)	> 100 µM (inactive)	> 100 µM (inactive)	> 100 µM (inactive)	> 100 µM (inactive)	> 100 µM (inactive)	> 100 µM (inactive)	> 100 µM (inactive)	22.9 µM (inactive)	> 100 µM (inactive)	> 100 µM (inactive)	> 100 µM (inactive)	–	> 100 µM (inactive)
O=C1NC2NC3NC(=O)NC3NC2N1 (configuration not stated)	> 100 µM (inactive)	> 100 µM (inactive)	–	–	> 100 µM (inactive)	> 100 µM (inactive)	> 100 µM (inactive)	–	> 100 µM (inactive)	–	> 100 µM (inactive)	–	> 100 µM (inactive)	> 100 µM (inactive)	–	> 100 µM (inactive)	> 100 µM (inactive)	> 100 µM (inactive)	> 100 µM (inactive)	> 100 µM (inactive)
O=C(COc1ccc(OCC(=O)NNC2=NC(c3cc(F)c(Cl)cc3Cl)CS2)c(Cl)c1)NNC1=NC(c2cc(F)c(Cl)cc2Cl)CS1 (configuration not stated)	23.7 µM (inactive)	–	–	16.7	38.1 µM (inactive)	20.1 µM (inactive)	20.2 µM (inactive)	14.7 µM (inactive)	20.8 µM (inactive)	–	28.6 µM (inactive)	> 100 µM (inactive)	42.5 µM (inactive)	35.9 µM (inactive)	25.8 µM (inactive)	18.6 µM (inactive)	> 100 µM (inactive)	21.6 µM (inactive)	19.1 µM (inactive)	–
CN1C=C(C(N)=O)Cc2ccsc21	–	> 100 µM (inactive)	> 100 µM (inactive)	> 100	> 100 µM (inactive)	> 100 µM (inactive)	> 100 µM (inactive)	> 100 µM (inactive)	> 100 µM (inactive)	> 100 µM (inactive)	> 100 µM (inactive)	> 100 µM (inactive)	> 100 µM (inactive)	> 100 µM (inactive)	–	> 100 µM (inactive)	> 100 µM (inactive)	> 100 µM (inactive)	> 100 µM (inactive)	> 100 µM (inactive)

Source: ChEMBL document CHEMBL1201862, “PubChem BioAssay data set” (2004)
